Experimental data as given in US9765154B2, “Phosphohistidine analogs” (THE ROCKEFELLER UNIVERSITY, priority 2010, dated 2017).

Assay: ionization of the phosphonate group (pK values)
Assay type: physicochemical
Description: [drawing 33] it is isosteric with phosphorylated histidine. Further, the electrostatics of the phosphonoltriazolylalanine mimic those of phosphorylated Histidine. In particular, the phosphonate group of N-methyl-triazolylphosphonic acid is fully ionized at physiological pH (pK1=2.3 and pKA2=5.3), analogous to pHis.

N-methyl-triazolylphosphonic acid
pK1 of the phosphonate group: 2.3
pKA2 of the phosphonate group: 5.3
